For assay [1], the target named is T1, HiBit-BRG1 fusion protein (Homo sapiens, UniProt P51532).
T1 construct: expressed in transfected cells
The assay is described as follows: HiBiT-BRG1 cell-based degradation assay (Nano-Glo HiBiT Lytic Detection, 24 h). The conditions noted are these: HeLa cells expressing HiBit-BRG1 and LgBit; for DC50: read-out: BRG1 HiBit Degradation IC50; for Dmax: HeLa, top dose 30 μM, read-out: BRG1 HiBit Degradation Maximum measured. The method in brief:
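Degradation is scaled from DMSO-treated cells (0%) to cells given 2 μM of a known BRM/BRG1 degrader (100%). HeLa cells stably carrying HiBiT-BRG1 plus LgBiT (5000/well) were lysed with Nano-Glo HiBiT detection reagent, shaken 10 min at RT, and luminescence read.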

In assay [2] the target is T2, HiBit-BRM fusion protein (Homo sapiens, UniProt P51531).
T2 construct: expressed in transfected cells
The assay is described as follows: HiBiT-BRM cell-based degradation assay (Nano-Glo HiBiT Lytic Detection, 24 h). The following applies: HeLa cells expressing HiBiT-BRM; for DC50: read-out: BRM HiBit Degradation IC50; for BRM HiBit Degradation Maximum measured: top dose 30 μM. In a few lines: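 Stable HiBiT-BRM HeLa line; 24 h compound exposure, top final 30 μM, 3-fold, 10 pts in duplicate. Lytic HiBiT/LgBiT luminescence readout. % degradation vs DMSO (0%) and 2 μM known BRM/BRG1 degrader (100%).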
A general note: With HiBiT, luminescence reflects the tagged protein that the partner subunit can reach.

Molecules are shown by their SMILES.

T1 sequence (P51532 whole entry, the tested form may be a part): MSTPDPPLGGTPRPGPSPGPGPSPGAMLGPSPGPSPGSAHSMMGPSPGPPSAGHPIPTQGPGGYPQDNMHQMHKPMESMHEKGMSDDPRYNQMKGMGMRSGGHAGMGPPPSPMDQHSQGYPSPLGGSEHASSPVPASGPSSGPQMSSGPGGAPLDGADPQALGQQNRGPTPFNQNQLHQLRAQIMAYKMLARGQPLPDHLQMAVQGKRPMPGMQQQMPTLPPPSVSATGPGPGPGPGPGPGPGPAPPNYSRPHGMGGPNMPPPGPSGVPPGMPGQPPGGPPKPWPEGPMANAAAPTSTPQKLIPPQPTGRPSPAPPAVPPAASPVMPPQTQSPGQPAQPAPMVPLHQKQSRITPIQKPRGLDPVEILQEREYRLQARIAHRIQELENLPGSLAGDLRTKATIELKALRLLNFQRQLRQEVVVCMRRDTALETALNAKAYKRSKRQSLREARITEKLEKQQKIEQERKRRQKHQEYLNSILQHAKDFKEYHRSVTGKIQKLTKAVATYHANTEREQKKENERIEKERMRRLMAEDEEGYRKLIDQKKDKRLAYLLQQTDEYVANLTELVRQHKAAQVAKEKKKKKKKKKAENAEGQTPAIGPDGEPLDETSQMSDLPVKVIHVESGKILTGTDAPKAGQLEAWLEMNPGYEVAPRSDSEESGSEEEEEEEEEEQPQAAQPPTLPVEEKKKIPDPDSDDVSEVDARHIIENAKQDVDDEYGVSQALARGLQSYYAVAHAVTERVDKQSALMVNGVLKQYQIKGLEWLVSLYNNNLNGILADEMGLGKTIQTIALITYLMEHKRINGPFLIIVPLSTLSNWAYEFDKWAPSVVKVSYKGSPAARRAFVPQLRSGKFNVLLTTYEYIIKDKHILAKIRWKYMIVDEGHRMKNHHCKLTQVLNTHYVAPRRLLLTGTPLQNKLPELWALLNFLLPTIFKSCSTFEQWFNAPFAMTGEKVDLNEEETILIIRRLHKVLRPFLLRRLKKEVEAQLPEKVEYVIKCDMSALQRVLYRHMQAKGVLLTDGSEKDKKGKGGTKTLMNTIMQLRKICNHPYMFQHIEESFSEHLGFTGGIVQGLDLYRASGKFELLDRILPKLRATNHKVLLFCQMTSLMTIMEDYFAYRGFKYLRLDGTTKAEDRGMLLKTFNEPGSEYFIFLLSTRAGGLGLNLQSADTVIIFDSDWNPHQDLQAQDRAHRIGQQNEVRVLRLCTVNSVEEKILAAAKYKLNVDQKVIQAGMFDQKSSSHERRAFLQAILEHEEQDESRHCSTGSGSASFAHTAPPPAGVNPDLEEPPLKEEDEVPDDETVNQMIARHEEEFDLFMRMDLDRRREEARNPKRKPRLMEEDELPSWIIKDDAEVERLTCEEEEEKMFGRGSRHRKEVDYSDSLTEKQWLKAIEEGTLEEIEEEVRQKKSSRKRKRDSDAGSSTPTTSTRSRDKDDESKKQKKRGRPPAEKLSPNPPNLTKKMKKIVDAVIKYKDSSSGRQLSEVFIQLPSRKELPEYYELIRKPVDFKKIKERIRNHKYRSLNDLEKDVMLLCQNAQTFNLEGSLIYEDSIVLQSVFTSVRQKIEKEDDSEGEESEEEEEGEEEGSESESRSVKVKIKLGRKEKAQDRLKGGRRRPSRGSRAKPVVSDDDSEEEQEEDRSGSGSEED
T2 sequence (P51531 whole entry, the tested form may be a part): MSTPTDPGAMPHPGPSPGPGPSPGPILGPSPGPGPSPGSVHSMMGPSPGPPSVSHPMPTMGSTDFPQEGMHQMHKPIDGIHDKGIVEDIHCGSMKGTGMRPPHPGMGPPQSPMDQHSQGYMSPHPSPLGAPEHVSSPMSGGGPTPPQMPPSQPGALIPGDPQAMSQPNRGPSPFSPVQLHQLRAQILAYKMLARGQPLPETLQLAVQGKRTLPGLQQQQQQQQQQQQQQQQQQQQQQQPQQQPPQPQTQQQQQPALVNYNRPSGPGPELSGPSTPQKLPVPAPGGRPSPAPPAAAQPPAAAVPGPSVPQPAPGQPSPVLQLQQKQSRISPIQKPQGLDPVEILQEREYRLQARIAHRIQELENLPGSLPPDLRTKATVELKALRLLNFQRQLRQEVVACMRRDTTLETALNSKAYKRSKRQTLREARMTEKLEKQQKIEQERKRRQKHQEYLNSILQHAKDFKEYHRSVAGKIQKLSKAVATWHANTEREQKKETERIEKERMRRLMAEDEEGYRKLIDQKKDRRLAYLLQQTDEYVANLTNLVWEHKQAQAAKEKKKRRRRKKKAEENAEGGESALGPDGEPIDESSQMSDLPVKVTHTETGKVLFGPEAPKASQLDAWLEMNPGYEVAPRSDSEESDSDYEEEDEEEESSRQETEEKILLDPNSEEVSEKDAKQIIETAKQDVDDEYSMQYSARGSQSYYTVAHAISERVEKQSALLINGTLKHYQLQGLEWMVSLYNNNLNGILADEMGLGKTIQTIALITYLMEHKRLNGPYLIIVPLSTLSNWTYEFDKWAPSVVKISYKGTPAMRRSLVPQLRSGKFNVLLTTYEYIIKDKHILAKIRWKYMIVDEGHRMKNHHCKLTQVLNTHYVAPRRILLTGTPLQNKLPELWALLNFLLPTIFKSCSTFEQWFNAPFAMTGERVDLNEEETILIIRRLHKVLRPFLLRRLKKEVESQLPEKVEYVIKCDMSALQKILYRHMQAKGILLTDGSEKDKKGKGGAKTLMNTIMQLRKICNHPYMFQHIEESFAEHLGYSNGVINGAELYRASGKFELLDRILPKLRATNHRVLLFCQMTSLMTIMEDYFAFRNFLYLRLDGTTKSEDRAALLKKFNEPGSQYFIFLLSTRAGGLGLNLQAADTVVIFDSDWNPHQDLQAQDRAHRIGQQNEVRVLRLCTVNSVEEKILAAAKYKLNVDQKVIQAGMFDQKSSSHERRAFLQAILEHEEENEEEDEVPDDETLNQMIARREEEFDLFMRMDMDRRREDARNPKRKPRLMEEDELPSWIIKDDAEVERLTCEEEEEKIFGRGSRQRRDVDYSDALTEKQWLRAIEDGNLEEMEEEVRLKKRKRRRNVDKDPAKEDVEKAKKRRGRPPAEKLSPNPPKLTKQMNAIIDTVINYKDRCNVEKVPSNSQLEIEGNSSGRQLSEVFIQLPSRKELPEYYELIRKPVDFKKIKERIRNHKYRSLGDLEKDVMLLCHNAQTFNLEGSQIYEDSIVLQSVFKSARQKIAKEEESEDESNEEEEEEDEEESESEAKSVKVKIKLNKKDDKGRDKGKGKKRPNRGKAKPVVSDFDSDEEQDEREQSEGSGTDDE

Turning to `CS(=O)(=O)n1ccc(C(=O)NCC(=O)Nc2nc(-c3cccc(-c4ccnc(C5(C(=O)NC6CCN(CCCCOc7ccc8c(c7)C(=O)N(C7CCC(=O)NC7=O)C8=O)CC6)CC5)c4)c3)cs2)c1` (stereo not drawn) [Compound 140, N-[1-(4-[[2-(2,6-dioxopiperidin-3-yl)-1,3-dioxoisoindol-5-yl]oxy]butyl)piperidin-4-yl]-1-[4-[3-(2-[2-[(1-methanesulfonylpyrrol-3-yl)formamido]acetamido]-1,3-thiazol-4-yl)phenyl]pyridin-2-yl]cyclopropane-1-carboxamide], in assay [1], the DC50 fell in the range of 0.1 to 1 µM and the Dmax is more than 75%. In assay [2], the DC50 is 0.1 to 1 µM and the “BRM HiBit Degradation Maximum measured” value is reported as “A (‘A’ = Maximum degradation >75%)”.

For `CS(=O)(=O)n1ccc(C(=O)N[C@@H](CCOCCCC(=O)N2CCN(CC3CN(c4ccc5c(c4)C(=O)N(C4CCC(=O)NC4=O)C5=O)C3)CC2)C(=O)Nc2nc(-c3ccccc3)cs2)c1` (stereo partly drawn) [Compound 183, (2S)-4-[4-[4-([1-[2-(2,6-dioxopiperidin-3-yl)-1,3-dioxoisoindol-5-yl]azetidin-3-yl]methyl)piperazin-1-yl]-4-oxobutoxy]-2-[(1-methanesulfonylpyrrol-3-yl)formamido]-N-(4-phenyl-1,3-thiazol-2-yl)butanamide; formic acid], in assay [1], the DC50 is more than 10 µM and the Dmax is less than 50%. Further, in assay [2], the DC50 was more than 10 µM and the “BRM HiBit Degradation Maximum measured” value is listed as “C (‘C’ = Maximum degradation <50%)”.

For `Cc1ncsc1-c1ccc(CNC(=O)[C@@H]2C[C@@H](O)CN2C(=O)[C@@H](NC(=O)CCCCCNC(=O)c2ccc(COC[C@H](NC(=O)c3ccn(S(C)(=O)=O)c3)C(=O)Nc3nc(-c4ccccc4)cs3)cc2)C(C)(C)C)cc1` [Compound 232, (2S,4R)-4-hydroxy-1-[(2S)-2-[6-[(4-[[(2S)-2-[(1-methanesulfonylpyrrol-3-yl)formamido]-2-[(4-phenyl-1,3-thiazol-2-yl)carbamoyl]ethoxy]methyl]phenyl)formamido]hexanamido]-3,3-dimethylbutanoyl]-N-[[4-(4-methyl-1,3-thiazol-5-yl)phenyl]methyl]pyrrolidine-2-carboxamide], in assay [1], the DC50 is more than 10 µM and the Dmax was less than 50%. Further, in assay [2], the DC50 was more than 10 µM and the “BRM HiBit Degradation Maximum measured” value is listed as “C (‘C’ = Maximum degradation <50%)”.

Regarding `CS(=O)(=O)n1ccc(C(=O)N[C@@H](CCOCCCC(=O)NCCOCc2cccc(COCCOc3ccc4c(c3)C(=O)N(C3CCC(=O)NC3=O)C4=O)c2)C(=O)Nc2nc(-c3ccccc3)cs2)c1` (stereo partly drawn) [Compound 261, (2S)-4-(3-[[2-([3-[(2-[[2-(2,6-dioxopiperidin-3-yl)-1,3-dioxoisoindol-5-yl]oxy]ethoxy)methyl]phenyl]methoxy)ethyl]carbamoyl]propoxy)-2-[(1-methanesulfonylpyrrol-3-yl)formamido]-N-(4-phenyl-1,3-thiazol-2-yl)butanamide], in assay [1], the DC50 is more than 10 µM and the Dmax is less than 50%. Further, in assay [2], the DC50 is more than 10 µM and the “BRM HiBit Degradation Maximum measured” value is “C (‘C’ = Maximum degradation <50%)”.

In the case of `Cc1ncsc1-c1ccc(CNC(=O)[C@@H]2C[C@@H](O)CN2C(=O)[C@@H](NC(=O)CCC(=O)NCCOc2cc(-c3cccc(-c4csc(NC(=O)CNC(=O)c5ccn(S(C)(=O)=O)c5)n4)c3)ccn2)C(C)(C)C)cc1` [Compound 76, N′-[(1S)-1-[(2S,4R)-4-hydroxy-2-[[4-(4-methylthiazol-5-yl)phenyl]methylcarbamoyl]pyrrolidine-1-carbonyl]-2,2-dimethyl-propyl]-N-[2-[[4-[3-[2-[[2-[(1-methylsulfonylpyrrole-3-carbonyl)amino]acetyl]amino]thiazol-4-yl]phenyl]-2-pyridyl]oxy]ethyl]butanediamide], in assay [1], the DC50 is more than 10 µM and the Dmax is less than 50%. In addition, in assay [2], the DC50 was more than 10 µM and the “BRM HiBit Degradation Maximum measured” value is “C (‘C’ = Maximum degradation <50%)”.

On to `Cc1ncsc1-c1ccc(CNC(=O)[C@@H]2C[C@@H](O)CN2C(=O)[C@@H](NC(=O)CCCCCCCCC(=O)NCc2cccc(-c3cccc(-c4csc(NC(=O)CNC(=O)c5ccn(S(C)(=O)=O)c5)n4)c3)c2)C(C)(C)C)cc1` [Compound 19, N′-[(1S)-1-[(2S,4R)-4-hydroxy-2-[[4-(4-methylthiazol-5-yl)phenyl]methylcarbamoyl]pyrrolidine-1-carbonyl]-2,2-dimethylpropyl]-N-[[3-[3-[2-[[2-[(1-methylsulfonylpyrrole-3-carbonyl)amino]acetyl]amino]thiazol-4-yl]phenyl]phenyl]methyl]decanediamide], for which, in assay [1], the DC50 was in the range of 0.1 to 1 µM and the Dmax is more than 75%. In assay [2], the DC50 is less than 0.1 µM and the “BRM HiBit Degradation Maximum measured” value was “A (‘A’ = Maximum degradation >75%)”.

`Cc1ncsc1-c1ccc(CNC(=O)[C@@H]2C[C@@H](O)CN2C(=O)[C@@H](NCc2cccc(-c3cccc(-c4csc(NC(=O)CNC(=O)c5ccn(S(C)(=O)=O)c5)n4)c3)c2)C(C)(C)C)cc1` [Compound 164, (2S,4R)-4-hydroxy-1-[(2S)-2-([[3′-(2-[2-[(1-methanesulfonylpyrrol-3-yl)formamido]acetamido]-1,3-thiazol-4-yl)-[1,1′-biphenyl]-3-yl]methyl]amino)-3,3-dimethylbutanoyl]-N-[[4-(4-methyl-1,3-thiazol-5-yl)phenyl]methyl]pyrrolidine-2-carboxamide]: in assay [1], the DC50 is more than 10 µM and the Dmax was less than 50%. In assay [2], the DC50 was more than 10 µM and the “BRM HiBit Degradation Maximum measured” value is recorded as “C (‘C’ = Maximum degradation <50%)”.

`CC(C)(C)n1ccc(C(=O)N[C@@H](COCc2ccc(C(=O)NC3CCN(CCOc4ccc5c(c4)C(=O)N(C4CCC(=O)NC4=O)C5=O)CC3)cc2)C(=O)Nc2nc(-c3ccccc3)cs2)c1` (stereo partly drawn) [Compound 170, 4-[[(2S)-2-[(1-tert-butylpyrrol-3-yl)formamido]-2-[(4-phenyl-1,3-thiazol-2-yl)carbamoyl]ethoxy]methyl]-N-[1-(2-[[2-(2,6-dioxopiperidin-3-yl)-1,3-dioxoisoindol-5-yl]oxy]ethyl)piperidin-4-yl]benzamide]: in assay [1], the DC50 fell in the range of 0.1 to 1 µM and the Dmax is more than 75%. Also, in assay [2], the DC50 lay within 0.1 to 1 µM and the “BRM HiBit Degradation Maximum measured” value is recorded as “A (‘A’ = Maximum degradation >75%)”.

`CS(=O)(=O)n1ccc(C(=O)N[C@@H](COCc2ccc(C(=O)NCCOCCOCCOCCNC(=O)COc3cccc4c3C(=O)N(C3CCC(=O)NC3=O)C4=O)cc2)C(=O)Nc2nc(-c3ccccc3)cs2)c1` (stereo partly drawn) [Compound 236, N-((2S)-3-((4-((1-((2-(2,6-dioxopiperidin-3-yl)-1,3-dioxoisoindolin-4-yl)oxy)-2-oxo-6,9,12-trioxa-3-azatetradecan-14-yl)carbamoyl)benzyl)oxy)-1-oxo-1-((4-phenylthiazol-2-yl)amino)propan-2-yl)-1-(methylsulfonyl)-1H-pyrrole-3-carboxamide]: in assay [1], the DC50 is more than 10 µM and the Dmax was less than 50%. In addition, in assay [2], the DC50 is more than 10 µM and the “BRM HiBit Degradation Maximum measured” value is “C (‘C’ = Maximum degradation <50%)”.

Turning to `CS(=O)(=O)n1ccc(C(=O)N[C@@H](COCc2ccc(C(=O)N3CCN(CCCC#Cc4ccc5c(c4)C(=O)N(C4CCC(=O)NC4=O)C5=O)CC3)cc2)C(=O)Nc2nc(-c3ccccc3)cs2)c1.O=CO` (stereo partly drawn) [Compound 239, (2S)-3-[[4-(4-[5-[2-(2,6-dioxopiperidin-3-yl)-1,3-dioxoisoindol-5-yl]pent-4-yn-1-yl]piperazine-1-carbonyl)phenyl]methoxy]-2-[(1-methanesulfonylpyrrol-3-yl)formamido]-N-(4-phenyl-1,3-thiazol-2-yl)propanamide; formic acid], in assay [1], the DC50 is more than 10 µM and the Dmax is less than 50%. In addition, in assay [2], the DC50 was more than 10 µM and the “BRM HiBit Degradation Maximum measured” value is given as “C (‘C’ = Maximum degradation <50%)”.

`Cc1ncsc1-c1ccc(CNC(=O)[C@@H]2C[C@@H](O)CN2C(=O)[C@@H](NC(=O)CCCCCNC(=O)CN(C)c2cc(-c3cccc(-c4csc(NC(=O)CNC(=O)c5ccn(S(C)(=O)=O)c5)n4)c3)ccn2)C(C)(C)C)cc1` [Compound 87]: in assay [1], the DC50 was more than 10 µM and the Dmax was less than 50%. In assay [2], the DC50 is more than 10 µM and the “BRM HiBit Degradation Maximum measured” value is recorded as “C (‘C’ = Maximum degradation <50%)”.

Regarding `CS(=O)(=O)n1ccc(C(=O)NCC(=O)Nc2nc(-c3cccc(-c4ccn(CC(=O)N5CCC(C6CCN(C(=O)COc7cccc8c7C(=O)N(C7CCC(=O)NC7=O)C8=O)CC6)CC5)n4)c3)cs2)c1` (stereo not drawn) [Compound 4, N-[2-[[4-[3-[1-[2-[4-[1-[2-[2-(2,6-dioxo-3-piperidyl)-1,3-dioxoisoindolin-4-yl]oxyacetyl]-4-piperidyl]-1-piperidyl]-2-oxo-ethyl]pyrazol-3-yl]phenyl]thiazol-2-yl]amino]-2-oxo-ethyl]-1-methylsulfonyl-pyrrole-3-carboxamide], in assay [1], the DC50 is more than 10 µM and the Dmax is less than 50%. Besides, in assay [2], the DC50 is more than 10 µM and the “BRM HiBit Degradation Maximum measured” value was “C (‘C’ = Maximum degradation <50%)”.

(Values after patent US12662479B2 (Foghorn Therapeutics Inc., priority 2020, dated 2026).)
